Reference: ChEMBL document CHEMBL4402510, “Caprazamycins: Promising lead structures acting on a novel antibacterial target MraY” (Eur J Med Chem, 2019)
pIC50: −log10 of the molar value. Values after ≈ are worked out from the molar mass of the structure shown.

What was measured:
Escherichia coli [1] = test: Antibacterial activity against Escherichia coli; format: functional
[2] = system: Mycobacterium intracellulare; test: Antibacterial activity against Mycobacterium intracellulare; format: functional
[3] = system: Mycolicibacterium smegmatis; test: Antibacterial activity against Mycobacterium smegmatis; format: functional
Mycobacterium avium [4] = test: Antibacterial activity against Mycobacterium avium; format: functional
[5] = system: Mycobacterium tuberculosis; test: Antibacterial activity against Mycobacterium tuberculosis; format: functional
[6] = system: Mycolicibacterium fortuitum; test: Antibacterial activity against Mycobacterium fortuitum; format: functional
Bacillus subtilis [7] = test: Antibacterial activity against Bacillus subtilis; format: functional
Staphylococcus aureus [8] = test: Antibacterial activity against Staphylococcus aureus; format: functional
Mycolicibacterium phlei = test: Antibacterial activity against Mycobacterium phlei after 20 hrs by NCCLS-based two-fold broth dilution method; format: functional
Bacillus subtilis [9] = test: Inhibition of TagO in Bacillus subtilis
Staphylococcus aureus [10] = test: Antibacterial activity against methicillin resistant Staphylococcus aureus No. 5; format: functional
[11] = system: Mycobacterium tuberculosis; test: Inhibition of WecA in Mycobacterium tuberculosis
[12] = system: Mycobacterium tuberculosis; test: Inhibition of WecA in Mycobacterium tuberculosis mc2 6230
Escherichia coli [13] = test: Antibacterial activity against Escherichia coli after 20 hrs by NCCLS-based two-fold broth dilution method; format: functional
[14] = system: Mycobacterium intracellulare; test: Antibacterial activity against Mycobacterium intracellulare after 20 hrs by NCCLS-based two-fold broth dilution method; format: functional
[15] = system: Mycolicibacterium smegmatis; test: Antibacterial activity against Mycobacterium smegmatis after 20 hrs by NCCLS-based two-fold broth dilution method; format: functional
Enterococcus faecalis [16] = test: Antibacterial activity against Enterococcus faecalis NCTC122103; format: functional
Streptococcus pneumoniae [17] = test: Antibacterial activity against Streptococcus pneumoniae S-223; format: functional
Mycobacterium avium [18] = test: Antibacterial activity against Mycobacterium avium after 20 hrs by NCCLS-based two-fold broth dilution method; format: functional
Mycolicibacterium vaccae [19] = test: Antibacterial activity against Mycobacterium vaccae after 20 hrs by NCCLS-based two-fold broth dilution method; format: functional
Staphylococcus aureus [20] = test: Antibacterial activity against Staphylococcus aureus after 20 hrs by NCCLS-based two-fold broth dilution method; format: functional
Staphylococcus aureus [21] = test: Antibacterial activity against methicillin resistant Staphylococcus aureus after 20 hrs by NCCLS-based two-fold broth dilution method; format: functional; conditions: read-out: MIC
[22] = system: Mycolicibacterium smegmatis; test: Inhibition of WecA in Mycobacterium smegmatis
[23] = system: Mycobacterium tuberculosis; test: Antibacterial activity against Mycobacterium tuberculosis after 20 hrs by NCCLS-based two-fold broth dilution method; format: functional
Bacillus subtilis [24] = test: Antibacterial activity against Bacillus subtilis after 20 hrs by NCCLS-based two-fold broth dilution method; format: functional
[25] = Antibacterial activity against Mycobacterium avium subsp. avium ATCC 25291; format: functional
[26] = target: T1, Phospho-N-acetylmuramoyl-pentapeptide-transferase (Bacillus subtilis (strain 168), UniProt Q03521); test: Inhibition of MraY in Bacillus subtilis
T1 sequence (Q03521 whole entry): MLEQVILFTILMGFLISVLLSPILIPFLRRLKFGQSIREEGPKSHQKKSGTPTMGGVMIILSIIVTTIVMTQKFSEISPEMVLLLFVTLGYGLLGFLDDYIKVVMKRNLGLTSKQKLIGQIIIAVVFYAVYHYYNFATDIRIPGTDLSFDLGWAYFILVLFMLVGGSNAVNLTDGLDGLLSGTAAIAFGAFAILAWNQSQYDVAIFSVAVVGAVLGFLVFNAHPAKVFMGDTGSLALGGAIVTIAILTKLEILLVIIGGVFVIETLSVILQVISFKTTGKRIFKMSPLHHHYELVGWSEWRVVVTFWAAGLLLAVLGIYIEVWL

Streptococcus pneumoniae [27] = test: Antibacterial activity against Streptococcus pneumoniae CR-8; format: functional
Enterococcus faecalis [28] = test: Antibacterial activity against Enterococcus faecalis JCM 5803; format: functional
[29] = system: Mycobacterium tuberculosis; test: Antibacterial activity against Mycobacterium tuberculosis H37Rv; format: functional
Klebsiella pneumoniae = test: Antibacterial activity against Klebsiella pneumoniae after 20 hrs by NCCLS-based two-fold broth dilution method; format: functional
[30] = system: Mycobacterium avium subsp. paratuberculosis; test: Antibacterial activity against Mycobacterium avium subsp. paratuberculosis ATCC 43015; format: functional
Staphylococcus aureus [31] = test: Antibacterial activity against Staphylococcus aureus FDA209P; format: functional; conditions: FDA 209P
[32] = system: Mycobacterium intracellulare; test: Antibacterial activity against Mycobacterium intracellulare JCM3684; format: functional
Mycolicibacterium vaccae [33] = test: Antibacterial activity against Mycobacterium vaccae; format: functional
Enterococcus faecium [34] = test: Antibacterial activity against Enterococcus faecium SR7917 (VRE); format: functional
Enterococcus faecium [35] = test: Antibacterial activity against Enterococcus faecium ATCC 19434; format: functional
Enterococcus faecium [36] = test: Antibacterial activity against t Enterococcus faecium after 20 hrs by NCCLS-based two-fold broth dilution method; format: functional
Enterococcus faecalis [37] = test: Antibacterial activity against Enterococcus faecalis SR7914 (VRE); format: functional
Haemophilus influenzae [38] = test: Antibacterial activity against Haemophilus influenzae after 20 hrs by NCCLS-based two-fold broth dilution method; format: functional
Staphylococcus aureus [39] = test: Antibacterial activity against methicillin resistant Staphylococcus aureus SR3637; format: functional
Haemophilus influenzae [40] = test: Antibacterial activity against Haemophilus influenzae ATCC 10211; format: functional
Staphylococcus aureus [41] = test: Antibacterial activity against methicillin susceptible Staphylococcus aureus ATCC 29213; format: functional
Enterococcus faecalis [42] = test: Antibacterial activity against Enterococcus faecalis ATCC 29212; format: functional
Pseudomonas aeruginosa [43] = test: Antibacterial activity against Pseudomonas aeruginosa YY165; format: functional
Staphylococcus aureus [44] = test: Antibacterial activity against methicillin susceptible Staphylococcus aureus after 20 hrs by NCCLS-based two-fold broth dilution method; format: functional; conditions: read-out: MIC
Streptococcus pneumoniae [45] = test: Antibacterial activity against Streptococcus pneumoniae after 20 hrs by NCCLS-based two-fold broth dilution method; format: functional
Enterococcus faecalis [46] = test: Antibacterial activity against t Enterococcus faecalis after 20 hrs by NCCLS-based two-fold broth dilution method; format: functional; conditions: read-out: MIC
Enterococcus faecalis [47] = test: Antibacterial activity against t Enterococcus faecalis VRE after 20 hrs by NCCLS-based two-fold broth dilution method; format: functional; conditions: read-out: MIC
Pseudomonas aeruginosa [48] = test: Antibacterial activity against Pseudomonas aeruginosa after 20 hrs by NCCLS-based two-fold broth dilution method; format: functional
Staphylococcus aureus [49] = test: Antibacterial activity against multi drug resistance Staphylococcus aureus after 20 hrs by NCCLS-based two-fold broth dilution method; format: functional

## CO[C@@H]1[C@@H](OC)[C@H](C)O[C@@H](OC(=O)C[C@@H](C)CC(=O)O[C@@H](CCCCCCCCCCC(C)C)CC(=O)O[C@H]2CN(C)[C@@H]([C@H](O[C@@H]3O[C@H](CN)[C@@H](O)[C@H]3O)[C@H]3O[C@@H](n4ccc(=O)[nH]c4=O)[C@H](O)[C@@H]3O)C(=O)N(C)[C@@H]2C(=O)O)[C@@H]1OC
Escherichia coli [1]
  MIC: 100 µg/mL (≈ 87.2 µM)
[2]
  MIC: 1.56 to 25 µg/mL (≈ 1.36 to 21.8 µM)
[3]
  MIC: 1.56 to 3.13 µg/mL (≈ 1.36 to 2.73 µM)
Mycobacterium avium [4]
  MIC: 6.25 to 50 µg/mL (≈ 5.45 to 43.6 µM)
[5]
  MIC: 3.13 to 12.5 µg/mL (≈ 2.73 to 10.9 µM)
[6]
  MIC: 50 µg/mL (≈ 43.6 µM)
Bacillus subtilis [7]
  MIC: 6.25 to 12.5 µg/mL (≈ 5.45 to 10.9 µM)
Staphylococcus aureus [8]
  MIC: 1.56 to 6.25 µg/mL (≈ 1.36 to 5.45 µM)

## CCCCc1ccc(NC(=O)C2=CCN(C)[C@@H]([C@H](O[C@@H]3O[C@H](CN)[C@@H](O)[C@H]3O)[C@H]3O[C@@H](n4ccc(=O)[nH]c4=O)[C@H](O)[C@@H]3O)C(=O)N2C)cc1
Mycolicibacterium phlei
  MIC: 12.5 µg/mL (≈ 18.1 µM)
Bacillus subtilis [9]
  MIC: 0.05 µg/mL (≈ 0.0726 µM)
Staphylococcus aureus [10]
  MIC: 8 to 100 µg/mL (≈ 11.6 to 145 µM)
[11]
  MIC: 0.04 µg/mL (≈ 0.0581 µM)
[12]
  MIC: 0.04 µg/mL (≈ 0.0581 µM)
Escherichia coli [13]
  MIC: > 100 µg/mL
[14]
  MIC: 0.2 µg/mL (≈ 0.29 µM)
[15]
  MIC: 6.25 µg/mL (≈ 9.07 µM)
Enterococcus faecalis [16]
  MIC: 8 to 100 µg/mL (≈ 11.6 to 145 µM)
Streptococcus pneumoniae [17]
  MIC: 8 to 100 µg/mL (≈ 11.6 to 145 µM)
Mycobacterium avium [18]
  MIC: 0.39 to 1.56 µg/mL (≈ 0.566 to 2.27 µM)
Mycolicibacterium vaccae [19]
  MIC: 50 µg/mL (≈ 72.6 µM)
Staphylococcus aureus [20]
  MIC: 25 µg/mL (≈ 36.3 µM)
Staphylococcus aureus [21]
  MIC: 100 µg/mL (≈ 145 µM)
[22]
  MIC: 0.0044 µg/mL (≈ 0.00639 µM)
[23]
  MIC: 1.56 µg/mL (≈ 2.27 µM)
Bacillus subtilis [24]
  MIC: 3.13 µg/mL (≈ 4.54 µM)
[25]
  MIC: 0.2 to 1.56 µg/mL (≈ 0.29 to 2.27 µM)
[26]
  pIC50: 6.24
Streptococcus pneumoniae [27]
  MIC: 8 to 100 µg/mL (≈ 11.6 to 145 µM)
Enterococcus faecalis [28]
  MIC: 8 to 100 µg/mL (≈ 11.6 to 145 µM)
[29]
  MIC: 0.2 to 1.56 µg/mL (≈ 0.29 to 2.27 µM)
Klebsiella pneumoniae
  MIC: 50 µg/mL (≈ 72.6 µM)
[30]
  MIC: 0.2 to 1.56 µg/mL (≈ 0.29 to 2.27 µM)
Staphylococcus aureus [31]
  MIC: 8 to 100 µg/mL (≈ 11.6 to 145 µM)
[32]
  MIC: 0.2 to 1.56 µg/mL (≈ 0.29 to 2.27 µM)

## CCCCCCCCCCCCC[C@@H](CC(=O)O[C@H]1CN(C)[C@@H]([C@H](O[C@@H]2O[C@H](CN)[C@@H](O)[C@H]2O)[C@H]2O[C@@H](n3ccc(=O)[nH]c3=O)[C@H](O)[C@@H]2O)C(=O)N(C)[C@@H]1C(=O)O)OC(=O)C[C@H](C)CC(=O)O[C@@H]1O[C@@H](C)[C@H](OC)[C@@H](OC)[C@H]1OC
[2]
  MIC: 0.78 µg/mL (≈ 0.68 µM)
Mycolicibacterium vaccae [33]
  MIC: 0.2 µg/mL (≈ 0.174 µM)
[3]
  MIC: 0.78 to 1.56 µg/mL (≈ 0.68 to 1.36 µM)
Mycobacterium avium [4]
  MIC: < 0.025 µg/mL
[5]
  MIC: 1.56 µg/mL (≈ 1.36 µM)

## CCCCCCCCC(CCCCCCCC)C(=O)N[C@@H]1CCN[C@@H]([C@H](O[C@@H]2O[C@H](CN)[C@@H](O)[C@H]2O)[C@H]2O[C@@H](n3ccc(=O)[nH]c3=O)[C@H](O)[C@@H]2O)C1
Enterococcus faecium [34]
  MIC: 8 µg/mL (≈ 10.8 µM)
Enterococcus faecium [35]
  MIC: 8 µg/mL (≈ 10.8 µM)
Enterococcus faecium [36]
  MIC: 8 µg/mL (≈ 10.8 µM)
Enterococcus faecalis [37]
  MIC: 4 µg/mL (≈ 5.41 µM)
Haemophilus influenzae [38]
  MIC: 16 µg/mL (≈ 21.6 µM)
Staphylococcus aureus [39]
  MIC: 8 µg/mL (≈ 10.8 µM)
Haemophilus influenzae [40]
  MIC: 32 µg/mL (≈ 43.2 µM)
Staphylococcus aureus [41]
  MIC: 4 µg/mL (≈ 5.41 µM)
Enterococcus faecalis [42]
  MIC: 4 µg/mL (≈ 5.41 µM)
Staphylococcus aureus [21]
  MIC: 8 µg/mL (≈ 10.8 µM)
Pseudomonas aeruginosa [43]
  MIC: 16 µg/mL (≈ 21.6 µM)
Staphylococcus aureus [44]
  MIC: 4 µg/mL (≈ 5.41 µM)
Streptococcus pneumoniae [45]
  MIC: 16 µg/mL (≈ 21.6 µM)
Enterococcus faecalis [46]
  MIC: 4 µg/mL (≈ 5.41 µM)
Enterococcus faecalis [47]
  MIC: 4 µg/mL (≈ 5.41 µM)
Pseudomonas aeruginosa [48]
  MIC: 32 µg/mL (≈ 43.2 µM)

## CCCCCCCCCCCCCCCC(=O)O[C@H]1CN[C@@H]([C@H](O[C@@H]2O[C@H](CN)[C@@H](O)[C@H]2O)[C@H]2O[C@@H](n3ccc(=O)[nH]c3=O)[C@H](O)[C@@H]2O)C(=O)N(C)[C@@H]1C(=O)O [DESMETHYLPALMITOYLCAPRAZOL]
[15]
  MIC: 25 µg/mL (≈ 31.3 µM)
Staphylococcus aureus [20]
  MIC: 1.56 µg/mL (≈ 1.95 µM)
Staphylococcus aureus [21]
  MIC: 6.25 to 12.5 µg/mL (≈ 7.81 to 15.6 µM)
Staphylococcus aureus [49]
  MIC: 3.13 µg/mL (≈ 3.91 µM)
Enterococcus faecalis [47]
  MIC: 12.5 µg/mL (≈ 15.6 µM)
